Measurements from patent US5070207A, “Phospholipase A2 inhibitors” (American Home Products Corporation, priority 1990, dated 1991).
pIC50: −log10 of the molar value. Read-outs that look alike come from different tables or passages of the source.

Tests used:
Human Platelet PLA2 = target: T1, Human Platelet PLA2 (Homo sapiens, UniProt P14555); experiment: in vitro isolated phospholipase A2 assay, human platelet PLA2; assay type: biochemical; conditions: for inhibition at 10 µM: read-out: % Inhibition at 10 μM HP
T1 construct: a) Semipurified human platelet acid extract PLA2 (in 10 mM sodium; from tissue; host or cells: human platelets (acid extract, semipurified)
T1 sequence (P14555 21-144): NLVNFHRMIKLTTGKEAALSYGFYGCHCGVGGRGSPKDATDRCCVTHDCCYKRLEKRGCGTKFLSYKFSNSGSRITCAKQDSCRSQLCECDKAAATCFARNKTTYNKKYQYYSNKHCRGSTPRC
Experimental: (§1) The compounds of the invention are tested in an in vitro isolated phospholipase A2 assay to determine the ability of the test compounds to inhibit the release of arachidonic acid from an arachidonic acid-containing substrate by the action of phospholipase A2 enzyme from human and non-human sources.
(§2) Into a 15 mL polypropylene tube are added the following:
(§3) ^6 Two human PLA2 enzymes are used:
a) Semipurified human platelet acid extract PLA2 (in 10 mM sodium
acetate buffer, pH 4.5). Remove protein precipitate by centrifugation at
about 2200 rpm for 10 minutes.
(§4) Incubate the 100 μL reaction mixture for 10 minutes at 37° C. in a shaking water bath. The reaction is terminated by the addition of 2 mL tetrahydrofuran, followed by vortexing. NH2 columns (100 μg/mL-Analytichem International) are conditioned with 0.5 mL tetrahydrofuran followed by 0.5 mL tetrahydrofuran/water (2 mL:0.1 mL, v/v).
(§5) The sample is loaded onto the columns and slowly drawn through them. The hydrolyzed arachidonic acid retained in the columns is eluted therefrom with 1 mL tetrahydrofuran/glacial acetic acid (2%). The arachidonic acid is transferred to scintillation vials and quantitated by β-counting analysis. A "total counts" sample is prepared by pipetting 25 μL ^3 H-arachidonate E. coli directly into a scintillation vial to which is added 1 mL tetrahydrofuran. 10 mL aquasol (scintillation cocktail) is added to all samples.

Human Synovial PLA2 = target: T2, Human Synovial PLA2 (Homo sapiens, UniProt P14555); experiment: in vitro isolated phospholipase A2 assay, human synovial fluid PLA2; assay type: biochemical; conditions: for inhibition at 10 µM: read-out: % Inhibition at 10 μM HSF
T2 construct: b) Purified human synovial fluid; from tissue; host or cells: human synovial fluid (purified)
T2 sequence (P14555 21-144): T1 sequence (P14555 21-144)
Experimental: as §1, §2, §3
b) Purified human synovial fluid.
as §4, §5

[1] = test system: LTC4 (lipoxygenase pathway); experiment: in vivo murine zymosan peritonitis assay, LTC4; parameters: species or system mouse (male CD-1); conditions: for ED50: Mus musculus, po, standard drugs
Experimental: (§6) The compounds of the invention are evaluated for their ability to inhibit the lipoxygenase and/or cyclooxygenase pathways of arachidonic acid metabolism in the in vivo murine zymosan peritonitis assay.
(§7) Male CD-1 mice (8 weeks old) are placed in plastic boxes in groups of six. Animals are injected with 1 mL i.p. of either 1% zymosan in pyrogen free 0.9% saline or saline (unstimulated control). Compounds are dosed orally 1 hour prior to zymosan injection. Twenty minutes after zymosan injection, the mice are asphyxiated by CO2 inhalation and the peritoneal cavity is lavaged with 2 mL ice cold Hanks Balanced Salt Solution (HBSS) without CaCl2, MgSO4 . 7H2 O and MgCl2 . 6H2 O. Peritoneal lavage fluid from each mouse is removed by syringe and placed in 5 mL plastic test tubes put on ice and volume is noted. Preparation of samples for evaluation by ELISA is as follows: Samples are centrifuged at 800 xg for 15 minutes; 1 mL of the supernatant is added to 8 mL ice cold methanol and kept at -70° C. overnight to precipitate protein; and samples are then centrifuged at 800 xg for 15 minutes, followed by a drying procedure in a Savant speed vac concentrator. The samples are reconstituted with 1 mL ice cold ELISA buffer and stored at -70° C. until assayed. The assay for eicosanoids (LTC4 and 6-keto-PGF1α) is performed according to conventional ELISA procedures.
(§8) Compounds to be tested orally are suspended in 0.5% Tween 80. Compounds to be tested intraperitoneally are suspended in 0.5% methylcellulose in 0.9% saline.
(§9) The total metabolite level in lavage fluid/mouse is calculated and the significance is determined by a one-way analysis of variance with LSD comparisons to control (p≤0.05). Drug effects are expressed as a percent change from control values.

[2] = test system: LTB4 synthesis by rat glycogen-elicited polymorphonuclear leukocytes (PMN); experiment: inhibition of LTB4 synthesis by rat glycogen-elicited polymorphonuclear leukocytes; assay type: cell-based; conditions: Leukocyte
Experimental: Roy. Soc. Med., 74, 831 (1981)]. […] Accordingly, the specificity of action of PLA2 inhibitors can be determined by the activity of test compounds in this assay, which measures the ability of compounds to inhibit the synthesis of LTB4 by rat glycogen-elicited polymorphonuclear leukocytes (PMN) in the presence of exogenous substrate. […] The exudate is centrifuged at 400 xg for 10 minutes. The supernatant fluid is discarded and the cell pellet is resuspended to a concentration of 2.0×10^7 cells/mL in HBSS containing Ca^++ and Mg^++ and 10 μM L-cysteine. […] The reaction is terminated by centrifugation and pelleting cells. Supernatants are then analyzed by HPLC analysis on a 15 cm×4.6 mm ID supelcosil LC-18 (Supelco)(3M) column, using a two solvent system at a flow rate of 1.4 mL total flow as follows: Solvent A: 70:30 17.4 mM H3 PO4 :CH3 CN Solvent B. CH3 CN Gradient: (system is equilibrated with Solvent A) Percent solvent changes are accomplished in a linear fashion. […] 10^4 -2.0×10^4 dpm of eicosanoids of interest are injected in 90 μL EtOH cocktail. […] Results are expressed as percent inhibition at a given compound dose or as an IC50 value.

[3] = test system: T×B2 synthesis by rat glycogen-elicited polymorphonuclear leukocytes (PMN); experiment: inhibition of synthesis of the cyclooxygenase product TxB2 by rat polymorphonuclear leukocytes; assay type: cell-based; conditions: Leukocyte
Experimental: The exudate is centrifuged at 400 xg for 10 minutes. The supernatant fluid is discarded and the cell pellet is resuspended to a concentration of 2.0×10^7 cells/mL in HBSS containing Ca^++ and Mg^++ and 10 μM L-cysteine. […] The reaction is terminated by centrifugation and pelleting cells. Supernatants are then analyzed by HPLC analysis on a 15 cm×4.6 mm ID supelcosil LC-18 (Supelco)(3M) column, using a two solvent system at a flow rate of 1.4 mL total flow as follows: […] In this assay, the procedure of Example 14 is carried out as described. […] The results are calculated as in Example 14 and presented below: […]

[4] = test system: 6-keto-PGF1α /TxB2 (cyclooxygenase pathway); experiment: in vivo murine zymosan peritonitis assay, 6-keto-PGF1α /TxB2; parameters: species or system mouse (male CD-1); conditions: for ED50: Mus musculus, po, read-out: ED50 6-keto-PGF1α /TxB2
Experimental: as §6, §7, §8, §9

[5] = human synovial fluid, read-out: IC50 HSF

Molecule CCCCC/C=C\C/C=C\C/C=C\C/C=C\CCCC(=O)O [Arachidonic Acid, reference compound] has a pIC50 (Human Platelet PLA2) of 5.07 and a pIC50 (Human Synovial PLA2) of 5.49.
In the case of NC1=NN(c2cccc(C(F)(F)F)c2)CC1 [BW755C], the ED50 [1] was < 10 mg/kg.
O=C(C#CCCCOc1ccc(Cl)cc1)C(F)(F)F [Example 1, 7-(4-Chlorophenoxy)-1,1,1-trifluoro-3-heptyn-2-one] gave an inhibition at 10 µM [2] of 89.8%, an inhibition at 10 µM [3] of 24% and an inhibition at 50 µM (Human Platelet PLA2; at 50 μM, human platelet, read-out: % Inhibition HP) of 54%. The pIC50 (Human Synovial PLA2; [5]) was 6.31, the “% Inhibition LTC4” value ([1]; 100 mg/kg p.o.) was 32% and the “% Inhibition 6-keto-PGF” value ([4]; 100 mg/kg p.o.) was 15%.
O=C(C#CCCCn1c2ccccc2c2ccccc21)C(F)(F)F [Example 2, 7-(9H-Carbazol-9-yl)-1,1,1-trifluoro-3-heptyn-2-one] was tested, and the inhibition at 10 µM (Human Platelet PLA2; human platelet) was 7.2% and the pIC50 (Human Synovial PLA2; [5]) was 7.37.
For O=C(C#CCCCOc1ccc(F)cc1)C(F)(F)F [Example 3, 1,1,1-Trifluoro-7-(4-fluorophenoxy)-3-heptyn-2-one], the pIC50 (Human Synovial PLA2; [5]) was 5.05.
Work on CC(C)(C)c1ccc(OCCCC#CC(=O)C(F)(F)F)cc1 [Example 4, 7-[4-(1,1-Dimethylethyl)phenoxy]-1,1,1-trifluoro-3-heptyn-2-one] yielded a pIC50 (Human Synovial PLA2; [5]) of 6.70.
COc1ccc(OCCCC#CC(=O)C(F)(F)F)cc1 [Example 5, 1,1,1-Trifluoro-7-(4-methoxyphenoxy)-3-heptyn-2-one] showed an inhibition at 10 µM (Human Synovial PLA2; human synovial fluid) of 38.7%.
O=C(C#CCCCN1c2cccc3cccc(c23)S1(=O)=O)C(F)(F)F [Example 6, 1,1,1-Trifluoro-7-(2H-naphth[1,8-cd]isothiazol-2-yl)-3-heptyn-2-one S,S-dioxide] was tested, and the inhibition at 10 µM (Human Synovial PLA2; human synovial fluid) was 84.8%.
Molecule O=C(C#CCCCOc1ccc(Cl)cc1)C(F)(F)CCc1ccccc1 [Example 7, 9-(4-Chlorophenoxy)-3,3-difluoro-1-phenyl-5-nonyn-4-one] has an inhibition at 10 µM [2] of 72%, an inhibition at 10 µM [3] of 40% and a pIC50 (Human Synovial PLA2; [5]) of 6.05.
O=C(C#CCCCOc1cccc(C(F)(F)F)c1)C(F)(F)F [Example 8, 1,1,1-Trifluoro-7-[3-(trifluoromethyl)phenoxy]-3-heptyn-2-one] gave an inhibition at 10 µM (Human Synovial PLA2; human synovial fluid) of 90.5%.
With CC(C)(C#CC(=O)C(F)(F)F)CCOc1ccc(Cl)cc1 [Example 9, 7-(4-Chlorophenoxy)-5,5-dimethyl-1,1,1-trifluoro-3-heptyne-2-one] the inhibition at 10 µM (Human Synovial PLA2; human synovial fluid) was 19.8%.
With O=C(C#CCCCCOc1ccc(Cl)cc1)C(F)(F)F [Example 10, 8-(4-Chlorophenoxy)-1,1,1-trifluoro-3-octyn-2-one] the inhibition at 10 µM (Human Synovial PLA2; human synovial fluid) was 94.2%.
O=C(C#CCCCOc1ccc(Cl)c2ccccc12)C(F)(F)F [Example 11, 7-[(4-Chloro-1-naphthalenyl)oxy]-1,1,1-trifluoro-3-heptyn-2-one] was tested, and the inhibition at 10 µM (Human Platelet PLA2; human platelet) was 26.5% and the inhibition at 10 µM (Human Synovial PLA2; human synovial fluid) was 94.6%.
Molecule CC(C)(C#CC(=O)C(F)(F)F)Oc1ccc(OC(F)(F)F)cc1 [Example 12, 1,1,1-Trifluoro-5-methyl-5-[4-(trifluoromethoxy)phenoxy]-3-hexyn-2-one] has an inhibition at 10 µM (Human Synovial PLA2; human synovial fluid) of 58.8%.
CC(C)Cc1ccc(C(C)C(=O)O)cc1 (stereo not drawn) [Ibuprofen] showed an ED50 ([4]; standard drugs) of 7 mg/kg.
COc1ccc2c(c1)c(CC(=O)O)c(C)n2C(=O)c1ccc(Cl)cc1 [Indomethacin] showed an ED50 [4] of 0.126 mg/kg.
For CC(=CCCC1=CCC(C2=CC(=O)OC2O)OC1O)CCC1=C(C)CCCC1(C)C (stereo not drawn) [Monoalide, reference compound], the pIC50 (Human Platelet PLA2) was 4.60 and the pIC50 (Human Synovial PLA2) was 6.85.
With O=C1CCN(c2ccccc2)N1 [Phenidone] the ED50 [1] was 24 mg/kg and the ED50 ([4]; standard drugs) was < 30 mg/kg.
